Results reported in patent US7786108B2, “Compounds and method for treating dyslipidemia” (Eli Lilly and Company, priority 2004, dated 2010).

The compounds below were run on transgenic mice that express both human CETP and human apolipoprotein A-1 (assay: In vivo assay of plasma lipids: elevation of HDL cholesterol). Conditions: Mus musculus; single oral dose 30 mg/kg; HDL cholesterol in serum at 8 hr after administration; relative to a control; read-out: % HDL cholesterol increase.
From the text: Additional serum lipids can be analyzed by enzymatic methods.

Point of comparison: Cc1cc2c(c(C)c1C(F)(F)F)N(C[C@H]1CC[C@H](CC(=O)O)CC1)CCC[C@@H]2N(Cc1cc(C(F)(F)F)cc(C(F)(F)F)c1)c1nnn(C)n1 [Example 153, (S)-(4-{5-[(3,5-Bis-trifluoromethyl-benzyl)-(2-methyl-2H-tetrazol-5-yl)-amino]-7,9-dimethyl-8-trifluoromethyl-2,3,4,5-tetrahydro-benzo[b]azepin-1-ylmethyl}-cyclohexyl)-acetic acid], change in vivo at 30 mg/kg 165%. Against it:
- Cc1cc2c(cc1C(F)(F)F)N(CC1CCC(CC(=O)O)CC1)CCCC2N(Cc1cc(C(F)(F)F)cc(C(F)(F)F)c1)c1nnn(C)n1 (centres unmarked) [Example 31, (4-{5-[(3,5-Bis-trifluoromethyl-benzyl)-(2-methyl-2H-tetrazol-5-yl)-amino]-7-methyl-8-trifluoromethyl-2,3,4,5-tetrahydro-benzo[b]azepin-1-ylmethyl}-cyclohexyl)-acetic acid] — lower, 114%
- Cc1cc2c(c(C)c1C(F)(F)F)N(CCC(C)(C)CC(=O)O)CCC[C@@H]2N(Cc1cc(C(F)(F)F)cc(C(F)(F)F)c1)c1nnn(C)n1 [Example 154, (S)-5-{5-[(3,5-Bis-trifluoromethyl-benzyl)-(2-methyl-2H-tetrazol-5-yl)-amino]-7,9-dimethyl-8-trifluoromethyl-2,3,4,5-tetrahydro-benzo[b]azepin-1-yl}-3,3-dimethyl-pentanoic acid] — lower, 99%
- CCN1CCC[C@H](N(Cc2cc(C(F)(F)F)cc(C(F)(F)F)c2)c2nnn(C)n2)c2cc(C)c(C(F)(F)F)cc21 [Example 30, (S)-(3,5-Bis-trifluoromethyl-benzyl)-(1-ethyl-7-methyl-8-trifluoromethyl-2,3,4,5-tetrahydro-1H-benzo[b]azepin-5-yl)-(2-methyl-2H-tetrazol-5-yl)-amine] — lower, 54%
- Cc1cc2c(cc1C(F)(F)F)N(Cc1nccs1)CCC[C@@H]2N(Cc1cc(C(F)(F)F)cc(C(F)(F)F)c1)c1nnn(CCN)n1 [Example 129, (S)-[2-(2-Amino-ethyl)-2H-tetrazol-5-yl]-(3,5-bis-trifluoromethyl-benzyl)-(7-methyl-1-thiazol-2-ylmethyl-8-trifluoromethyl-2,3,4,5-tetrahydro-1H-benzo[b]azepin-5-yl)-amine] — lower, 92%
- Cc1cc2c(cc1C(F)(F)F)N(CC1CC1)CCC[C@@H]2N(Cc1cc(Cl)cc(C(F)(F)F)c1)c1nnn(C)n1 [Example 196, (S)-(3-Chloro-5-trifluoromethyl-benzyl)-(1-cyclopropylmethyl-7-methyl-8-trifluoromethyl-2,3,4,5-tetrahydro-1H-benzo[b]azepin-5-yl)-(2-methyl-2H-tetrazol-5-yl)-amine] — lower, 126%
- Cc1cc2c(cc1C(F)(F)F)N(C(=O)OC(C)C)CCC[C@@H]2N(Cc1cc(C(F)(F)F)cc(C(F)(F)F)c1)c1nnn(C)n1 [Example 16, (S)-5-[(3,5-Bis-trifluoromethyl-benzyl)-(2-methyl-2H-tetrazol-5-yl)-amino]-7-methyl-8-trifluoromethyl-2,3,4,5-tetrahydro-benzo[b]azepine-1-carboxylic acid isopropyl ester] — lower, 82%
- Cc1cc2c(cc1C(F)(F)F)N(CCC(C)(C)CC(=O)O)CCC[C@@H]2N(Cc1cc(C(F)(F)F)cc(C(F)(F)F)c1)c1nnn(C)n1 [Example 32, (S)-5-{5-[(3,5-Bis-trifluoromethyl-benzyl)-(2-methyl-2H-tetrazol-5-yl)-amino]-7-methyl-8-trifluoromethyl-2,3,4,5-tetrahydro-benzo[b]azepin-1-yl}-3,3-dimethyl-pentanoic acid] — lower, 128%
- Cc1cc2c(cc1C(F)(F)F)N(CCO)CCC[C@@H]2N(Cc1cc(C(F)(F)F)cc(C(F)(F)F)c1)c1nnn(C)n1 [Example 33, (S)-2-{5-[(3,5-Bis-trifluoromethyl-benzyl)-(2-methyl-2H-tetrazol-5-yl)-amino]-7-methyl-8-trifluoromethyl-2,3,4,5-tetrahydro-benzo[b]azepin-1-yl}-ethanol] — higher, 354%
- Cc1cc2c(cc1C(F)(F)F)N(Cc1ccncc1)CCC[C@@H]2N(Cc1cc(Cl)cc(Cl)c1)c1nnn(C)n1 [Example 187, (S)-(3,5-Dichloro-benzyl)-(7-methyl-1-pyridin-4-ylmethyl-8-trifluoromethyl-2,3,4,5-tetrahydro-1H-benzo[b]azepin-5-yl)-(2-methyl-2H-tetrazol-5-yl)-amine] — lower, 124%
- Cc1cc2c(c(C)c1C(F)(F)F)N(CC1CC1)CCC[C@@H]2N(Cc1cc(Cl)cc(C(F)(F)F)c1)c1nnn(C)n1 [Example 200, (S)-(3-Chloro-5-trifluoromethyl-benzyl)-(1-cyclopropylmethyl-7,9-dimethyl-8-trifluoromethyl-2,3,4,5-tetrahydro-1H-benzo[b]azepin-5-yl)-(2-methyl-2H-tetrazol-5-yl)-amine] — lower, 153%
- Cn1nnc(N(Cc2cc(C(F)(F)F)cc(C(F)(F)F)c2)[C@H]2CCCN(CC3CCCC3)c3cc4c(cc32)COC4)n1 [Example 73, (S)-(3,5-Bis-trifluoromethyl-benzyl)-(5-cyclopentylmethyl-3,5,6,7,8,9-hexahydro-1H-2-oxa-5-aza-cyclohepta[f]inden-9-yl)-(2-methyl-2H-tetrazol-5-yl)-amine] — higher, 374%
- Cc1cc2c(c(C)c1C(F)(F)F)N(C[C@H]1CC[C@H](CC(=O)O)CC1)CCC[C@@H]2N(Cc1cc(Cl)cc(C(F)(F)F)c1)c1nnn(C)n1 [Example 201, (S)-(4-{5-[(3-Chloro-5-trifluoromethyl-benzyl)-(2-methyl-2H-tetrazol-5-yl)-amino]-7,9-dimethyl-8-trifluoromethyl-2,3,4,5-tetrahydro-benzo[b]azepin-1-ylmethyl}-cyclohexyl)-acetic acid] — lower, 147%
- Cc1cc(N(Cc2cc(C(F)(F)F)cc(C(F)(F)F)c2)[C@H]2CCCN(C[C@H]3CC[C@H](CC(=O)O)CC3)c3cc(C(F)(F)F)c(C)cc32)on1 [Example 94, (4-{5-[(3,5-Bis-trifluoromethyl-benzyl)-(3-methyl-isoxazol-5-yl)-amino]-7-methyl-8-trifluoromethyl-2,3,4,5-tetrahydro-benzo[b]azepin-1-ylmethyl}-cyclohexyl)-acetic acid] — lower, 154%
- Cc1cc2c(c(C)c1C(F)(F)F)N(CC1CC1)CCC[C@@H]2N(Cc1cc(C(F)(F)F)cc(C(F)(F)F)c1)c1nnn(C)n1 [Example 148, (S)-(3,5-Bis-trifluoromethyl-benzyl)-(1-cyclopropylmethyl-7,9-dimethyl-8-trifluoromethyl-2,3,4,5-tetrahydro-1H-benzo[b]azepin-5-yl)-(2-methyl-2H-tetrazol-5-yl)-amine] — higher, 224%
- Cc1cc2c(cc1C(F)(F)F)N(CC1CCCC1)CCC[C@@H]2N(Cc1cc(C(F)(F)F)cc(C(F)(F)F)c1)c1nnn(CCO)n1 [Example 27, (S)-2-{5-[(3,5-Bis-trifluoromethyl-benzyl)-(1-cyclopentylmethyl-7-methyl-8-trifluoromethyl-2,3,4,5-tetrahydro-1H-benzo[b]azepin-5-yl)-amino]-tetrazol-2-yl}-ethanol] — lower, 128%
- Cc1cc2c(cc1C(F)(F)F)N(CC1CCCC1)CCC[C@@H]2N(Cc1cc(C(F)(F)F)cc(C(F)(F)F)c1)c1nnn(C)n1 [Example 3, (S)-(3,5-bistrifluoromethylbenzyl)-(1-cyclopentylmethyl-7-methyl-8-trifluoromethyl-2,3,4,5-tetrahydro-1H-benzo[b]azepin-5-yl)-(2-methyl-2H-tetrazol-5-yl)amine] — lower, 71%
- CCC(OC(=O)N1CCCC(N(Cc2cc(C(F)(F)F)cc(C(F)(F)F)c2)c2nnn(C)n2)c2cc(C)c(C(F)(F)F)cc21)C(C)C (racemic) [Example 25, (+/−)-5-[(3,5-Bis-trifluoromethyl-benzyl)-(2-methyl-2H-tetrazol-5-yl)-amino]-7-methyl-8-trifluoromethyl-2,3,4,5-tetrahydro-benzo[b]azepine-1-carboxylic acid 1-ethyl-2-methyl-propyl ester] — lower, 142%
- Cc1c2c(cc3c1N(CC1CCCC1)CCC[C@@H]3N(Cc1cc(C(F)(F)F)cc(C(F)(F)F)c1)c1nnn(C)n1)COC2 [Example 170, (S)-(3,5-Bis-trifluoromethyl-benzyl)-(5-cyclopentylmethyl-4-methyl-3,5,6,7,8,9-hexahydro-1H-2-oxa-5-aza-cyclohepta[f]inden-9-yl)-(2-methyl-2H-tetrazol-5-yl)-amine] — lower, 95%
- CCC(CC)OC(=O)N1CCC[C@H](N(Cc2cc(C(F)(F)F)cc(C(F)(F)F)c2)c2nnn(C)n2)c2cc(C)c(C(F)(F)F)cc21 [Example 18, (S)-5-[(3,5-Bis-trifluoromethyl-benzyl)-(2-methyl-2H-tetrazol-5-yl)-amino]-7-methyl-8-trifluoromethyl-2,3,4,5-tetrahydro-benzo[b]azepine-1-carboxylic acid 1-ethyl-propyl ester] — lower, 105%
- Cc1cc2c(cc1C(F)(F)F)N(Cc1ccc(C#N)cc1)CCC[C@@H]2N(Cc1cc(C(F)(F)F)cc(C(F)(F)F)c1)c1nnn(C)n1 [Example 192, (S)-4-{5-[(3,5-bis-trifluoromethyl-benzyl)-(2-methyl-2H-tetrazol-5-yl)-amino]-7-methyl-8-trifluoromethyl-2,3,4,5-tetrahydro-benzo[b]azepin-1-ylmethyl}-benzonitrile] — lower, 102%
- Cc1c2c(cc3c1N(Cc1ccc(C(=O)O)cc1)CCC[C@@H]3N(Cc1cc(C(F)(F)F)cc(C(F)(F)F)c1)c1nnn(C)n1)COC2 [Example 166, (S)-4-{9-[(3,5-Bis-trifluoromethyl-benzyl)-(2-methyl-2H-tetrazol-5-yl)-amino]-4-methyl-1,3,6,7,8,9-hexahydro-2-oxa-5-aza-cyclohepta[f]inden-5-ylmethyl}-benzoic acid] — lower, 102%
- Cc1cc2c(cc1C(F)(F)F)N(C1CCOCC1)CCC[C@@H]2N(Cc1cc(C(F)(F)F)cc(C(F)(F)F)c1)c1nnn(C)n1 [Example 139, (S)-(3,5-Bis-trifluoromethyl-benzyl)-[7-methyl-1-(tetrahydro-pyran-4-yl)-8-trifluoromethyl-2,3,4,5-tetrahydro-1H-benzo[b]azepin-5-yl]-(2-methyl-2H-tetrazol-5-yl)-amine] — lower, 130%
